Assay results as given in ChEMBL document CHEMBL1201862, “PubChem BioAssay data set” (2004).
Blank lines part the entries; values can stand above or below the compound they belong to. Active and inactive are the calls of the source.

How the values were obtained:
[1] = P. falciparum Dd2 growth inhibitors, dose response, SYBR Green, cherry-picked samples (AID 1159567); type: functional, cell-based
[2] = HepG2 cell cytotoxicity, dose response, cytotoxicity control, cherry-picked samples (AID 1159577); type: functional, cell-based
[3] = target: Neurotensin receptor type 1 (Homo sapiens, UniProt P30989); type: functional;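 further: Image-based confirmatory dose-response assay measuring agonist activity at NTR1; NTR1-expressing U2OS osteosarcoma cells imaged for beta-arrestin GFP spot formation; agonist potency where compounds increase beta-arrestin recruitment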
[4] = inhibitors of HIV Env-driven cell fusion, dose response, cherry-pick (AID 652057); type: functional, cell-based
[5] = target: Sphingosine 1-phosphate receptor 2 (Homo sapiens, UniProt O95136); experiment: Dose Response Cell Based Assay for Antagonists of the S1P2 Receptor. [Related pubchem assays: 856, 736 ]; type: functional
[6] = CEM21 lymphoblast cell cytotoxicity, dose response, cytotoxicity control for viral fusion inhibitor project, CellTiter-Glo luminescence, cherry-picked (AID 652042); type: functional, cell-based;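 further: potency for signal decrease meaning cytotoxicity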
[7] = reduction of endogenous Shn3 mRNA, dose response, qPCR, Clone20 cells, cherry-pick (AID 743415); type: functional, cell-based
[8] = target: Protein Wnt-3a (Mus musculus, UniProt P27467); experiment: Wnt3a-driven reporter signaling inhibition, dose response, selectivity assay for Gli-SUFU antagonist project, Wnt-LIGHT cells, luminescence (AID 651570); type: functional; settings: read-out: IC50_Mean;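 further: Wnt-LIGHT reporter cells stimulated with conditioned medium from Wnt3a-producing cells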
[9] = HepG2 cell cytotoxicity, dose response, cytotoxicity control for Shn3 inhibitor project, CellTiter-Glo, cherry-picked (AID 624134); type: functional, cell-based
[10] = inhibitors of clade B AD8 Env fusion, dose response, cell-based, cherry-pick (AID 652062); type: functional;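 further: luciferase signal from cell-cell fusion driven by HIV-1 clade B AD8 Env; potency is for inhibitors of fusion seen as a drop in luminescence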
[11] = Shn3 3'UTR reporter inhibitors, dose response, cell-based, Clone20 osteoblasts, firefly luciferase, cherry-picked (AID 624132); type: functional;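 further: firefly luciferase luminescence from reporter carrying the Shn3 3'UTR in osteoblasts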
[12] = control 3'UTR Renilla luciferase suppression, dose response, counter-screen for Shn3 inhibitor project, cell-based, Clone20-Shn3RL, cherry-picked (AID 624133); type: functional
[13] = target: COUP transcription factor 2 (Homo sapiens, UniProt P24468); experiment: Luminescence-based cell-based high throughput dose response assay to identify inhibitors of COUP-TFII (NR2F2).; type: functional;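 further: HEK293 cells transiently cotransfected with COUP-TFII expression vector and reporter; luciferase reporter luminescence driven by COUP-TFII from the pX2-168 reporter plasmid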
[14] = reduction of Shn3 3'UTR firefly luciferase signal, dose response, Schnurri-3 inhibitor project, cell-based, Clone20 osteoblasts, cherry-pick, set 2 (AID 720490); type: functional;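 further: actives lower the luminescence signal as inhibitors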
[15] = target: T1, Fibrinogen beta chain (Homo sapiens, UniProt P02675); experiment: Fluorescence polarization-based biochemical high throughput dose response assay to identify inhibitors that disrupt the binding of a cyclic peptide (Tn6) to the fibrin proteolytic product D-Dimer and fragment E complex [DD(E )].
[16] = target: T1, Fibrinogen beta chain; experiment: Fluorescence polarization-based biochemical high throughput dose response assay to identify inhibitors that disrupt the binding of a cyclic peptide (Tn7) to the fibrin proteolytic product D-Dimer and fragment E complex [DD(E )].
[17] = target: Genome polyprotein (Hepatitis C virus, UniProt Q2Q167); experiment: HCV core protein dimerization inhibitors, dose response, biochemical, TR-FRET (AID 2159); design: species or system Hepacivirus hominis;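 further: blocks dimerization of HCV core protein measured by TR-FRET between tagged core106 pairs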
[18] = growth suppression of beta-catenin-knockout colon cells, dose response, cell-based, HCT116, human colon tumor (AID 1045); type: functional;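 further: HCT116 colon tumor cells with beta catenin knocked out; cells exposed to compound for 60 hours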
[19] = growth suppression of PTEN-null colon cells, dose response, cell-based, HCT116 PTEN knockout (AID 1047); type: functional;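 further: HCT116 colon tumor cells with PTEN knocked out; cells exposed to compound for 60 hours before readout; potency for loss of cell viability measured by luminescence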
[20] = system: Vero; experiment: host cell cytotoxicity of antiviral hits, dose response, cytotoxicity control for West Nile virus antiviral project, secondary assay (AID 1650); type: functional; settings: Chlorocebus sabaeus
[21] = target: Cytochrome P450 2C19 (Homo sapiens, UniProt P33261); experiment: qHTS Assay for Inhibitors and Substrates of Cytochrome P450 2C19. [Related pubchem assays: 410 ]; type: ADME; settings: read-out: Potency
[22] = Late stage results for the probe development effort to identify inhibitors of Plasmodium falciparum gametocytes: Luminescence-based cell-based high throughput dose response assay to identify inhibitors of viability of late stage Plasmodium falciparum gametocytes.; type: functional
[23] = THP-1 cell cytotoxicity, dose response, cytotoxicity control for Vif-APOBEC3G degradation inhibitor project, THP-1 cells (AID 1117359); type: functional; settings: Human immunodeficiency virus 1, THP-1
[24] = Late stage assay provider results from the probe development effort to identify selective inhibitors of heat shock protein 90 (HSP90): Absorbance-based cell proliferation assay in SKBR3 cells.; type: functional; settings: SK-BR-3
[25] = target: Heat shock protein HSP 90-alpha (Homo sapiens, UniProt P07900); experiment: Luminescence-based dose response biochemical high throughput screening assay for inhibitors of the Heat Shock Protein 90 (HSP90). [Related pubchem assays: 1831 (Summary AID.), 1846 (Confirmation screen.), 1789 (Primary screen.)]
[26] = Late stage assay provider results from the probe development effort to identify selective inhibitors of heat shock protein 90 (HSP90): Absorbance-based cell proliferation assay in MCF7 cells.; type: functional
[27] = target: Glyceraldehyde-3-phosphate dehydrogenase (Homo sapiens, UniProt P04406)
[28] = target: T2, Bcl-2-related protein A1 (Mus musculus, UniProt Q07440); experiment: Bfl-1 binding inhibitors, SAR follow-up, biochemical, fluorescence polarization (AID 1070)
T2 sequence (Q07440 whole entry): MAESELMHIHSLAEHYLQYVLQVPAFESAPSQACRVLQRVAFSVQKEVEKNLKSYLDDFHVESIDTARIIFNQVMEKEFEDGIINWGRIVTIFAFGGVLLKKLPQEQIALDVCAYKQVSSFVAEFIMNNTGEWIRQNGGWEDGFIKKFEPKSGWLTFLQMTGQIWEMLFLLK

[29] = target: T2, Bcl-2-related protein A1; experiment: Bfl-1 inhibitors blocking BH3 peptide binding, confirmation, biochemical, TR-FRET, mouse Bfl-1 (AID 621);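 further: TR-FRET binding of GST-Bfl-1 to FITC-labelled Bid peptide via terbium antibody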
[30] = target: T2, Bcl-2-related protein A1; experiment: Bfl-1 inhibitors, primary screen, biochemical, fluorescence polarization, FITC-Bid, mouse (AID 432)

T1 sequence (P02675 whole entry, the tested form may be a part): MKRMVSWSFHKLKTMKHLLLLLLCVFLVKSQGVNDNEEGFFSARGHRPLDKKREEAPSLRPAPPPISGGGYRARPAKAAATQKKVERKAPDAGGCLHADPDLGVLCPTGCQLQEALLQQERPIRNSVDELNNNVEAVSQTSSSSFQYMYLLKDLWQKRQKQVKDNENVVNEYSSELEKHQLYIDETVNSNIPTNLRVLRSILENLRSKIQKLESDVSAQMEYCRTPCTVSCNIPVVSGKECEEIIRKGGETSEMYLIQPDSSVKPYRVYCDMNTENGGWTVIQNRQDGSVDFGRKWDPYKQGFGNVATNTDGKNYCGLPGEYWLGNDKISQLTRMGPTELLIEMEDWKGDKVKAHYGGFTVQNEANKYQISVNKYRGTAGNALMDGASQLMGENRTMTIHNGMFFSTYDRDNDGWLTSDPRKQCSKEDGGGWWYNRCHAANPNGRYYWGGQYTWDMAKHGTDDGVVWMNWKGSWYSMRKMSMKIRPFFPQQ
Protein Wnt-3a, sequence (P27467 whole entry): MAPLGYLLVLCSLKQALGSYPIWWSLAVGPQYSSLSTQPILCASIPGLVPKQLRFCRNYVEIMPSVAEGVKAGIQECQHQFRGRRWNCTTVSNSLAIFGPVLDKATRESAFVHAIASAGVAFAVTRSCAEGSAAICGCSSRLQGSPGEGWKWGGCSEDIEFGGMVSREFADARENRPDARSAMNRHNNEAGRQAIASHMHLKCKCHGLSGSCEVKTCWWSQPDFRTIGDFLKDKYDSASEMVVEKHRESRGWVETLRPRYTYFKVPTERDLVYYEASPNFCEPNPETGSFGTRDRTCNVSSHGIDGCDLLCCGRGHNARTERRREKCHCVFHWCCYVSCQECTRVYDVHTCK
Genome polyprotein, sequence (Q2Q167 whole entry): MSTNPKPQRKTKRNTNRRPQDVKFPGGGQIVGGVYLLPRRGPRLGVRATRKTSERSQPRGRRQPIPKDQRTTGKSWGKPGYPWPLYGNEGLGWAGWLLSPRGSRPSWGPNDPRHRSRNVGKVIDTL
Sphingosine 1-phosphate receptor 2, sequence (O95136 whole entry, the tested form may be a part): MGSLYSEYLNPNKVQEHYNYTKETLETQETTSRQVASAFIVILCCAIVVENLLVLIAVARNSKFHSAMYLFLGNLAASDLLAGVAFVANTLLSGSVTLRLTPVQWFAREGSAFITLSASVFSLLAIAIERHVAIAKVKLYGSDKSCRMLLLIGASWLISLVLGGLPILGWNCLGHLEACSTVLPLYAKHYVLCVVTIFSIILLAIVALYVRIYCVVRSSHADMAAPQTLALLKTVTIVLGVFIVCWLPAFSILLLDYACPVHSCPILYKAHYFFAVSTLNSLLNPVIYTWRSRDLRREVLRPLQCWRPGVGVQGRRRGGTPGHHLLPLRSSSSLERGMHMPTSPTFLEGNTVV
Neurotensin receptor type 1, sequence (P30989 whole entry, the tested form may be a part): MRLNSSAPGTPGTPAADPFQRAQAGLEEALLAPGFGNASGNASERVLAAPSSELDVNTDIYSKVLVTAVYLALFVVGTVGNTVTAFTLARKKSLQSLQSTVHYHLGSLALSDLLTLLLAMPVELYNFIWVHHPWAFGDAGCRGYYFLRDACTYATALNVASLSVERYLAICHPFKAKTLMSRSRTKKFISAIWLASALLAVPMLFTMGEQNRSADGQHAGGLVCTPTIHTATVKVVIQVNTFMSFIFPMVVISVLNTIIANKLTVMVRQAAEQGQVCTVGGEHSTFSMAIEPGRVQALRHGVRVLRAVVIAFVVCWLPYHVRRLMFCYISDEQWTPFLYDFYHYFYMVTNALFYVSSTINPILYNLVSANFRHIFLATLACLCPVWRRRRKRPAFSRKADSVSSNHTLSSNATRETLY
Glyceraldehyde-3-phosphate dehydrogenase, sequence (P04406 whole entry): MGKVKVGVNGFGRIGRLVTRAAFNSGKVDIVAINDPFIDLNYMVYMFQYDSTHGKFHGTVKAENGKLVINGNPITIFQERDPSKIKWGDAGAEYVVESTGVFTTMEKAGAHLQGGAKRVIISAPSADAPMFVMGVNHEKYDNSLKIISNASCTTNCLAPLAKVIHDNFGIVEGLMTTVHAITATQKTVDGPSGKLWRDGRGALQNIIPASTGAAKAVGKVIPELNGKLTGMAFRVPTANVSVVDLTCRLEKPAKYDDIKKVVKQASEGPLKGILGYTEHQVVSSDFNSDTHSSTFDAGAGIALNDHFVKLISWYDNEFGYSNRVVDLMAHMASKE
Cytochrome P450 2C19, sequence (P33261 whole entry): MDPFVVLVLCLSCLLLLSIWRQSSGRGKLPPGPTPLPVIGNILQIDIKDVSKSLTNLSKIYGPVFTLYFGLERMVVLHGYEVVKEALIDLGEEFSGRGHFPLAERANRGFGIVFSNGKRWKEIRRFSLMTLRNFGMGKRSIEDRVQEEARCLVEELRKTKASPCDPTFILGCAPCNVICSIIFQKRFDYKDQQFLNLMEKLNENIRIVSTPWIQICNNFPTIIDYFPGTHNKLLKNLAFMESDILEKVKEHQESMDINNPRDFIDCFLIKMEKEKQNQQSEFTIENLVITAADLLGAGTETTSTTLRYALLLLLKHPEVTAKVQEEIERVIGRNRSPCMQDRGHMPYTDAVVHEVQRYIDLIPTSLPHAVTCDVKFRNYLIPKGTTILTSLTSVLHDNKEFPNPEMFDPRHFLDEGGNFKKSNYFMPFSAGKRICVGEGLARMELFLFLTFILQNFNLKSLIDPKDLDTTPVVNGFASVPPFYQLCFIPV
COUP transcription factor 2, sequence (P24468 whole entry): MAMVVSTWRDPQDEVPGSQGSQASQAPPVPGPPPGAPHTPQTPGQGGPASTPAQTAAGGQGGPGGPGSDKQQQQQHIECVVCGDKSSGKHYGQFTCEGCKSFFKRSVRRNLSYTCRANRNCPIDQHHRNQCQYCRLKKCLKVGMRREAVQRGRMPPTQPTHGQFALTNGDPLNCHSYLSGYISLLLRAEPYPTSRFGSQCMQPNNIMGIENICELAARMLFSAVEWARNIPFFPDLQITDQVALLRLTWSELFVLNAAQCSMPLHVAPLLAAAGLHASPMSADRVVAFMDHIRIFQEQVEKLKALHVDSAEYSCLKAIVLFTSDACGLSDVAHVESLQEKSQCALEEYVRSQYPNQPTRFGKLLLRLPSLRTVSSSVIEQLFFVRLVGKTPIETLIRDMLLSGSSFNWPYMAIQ

Structure (SMILES): Cc1cccc(-c2ccc([C@@H]3[C@@H]4CN(C(=O)C5CCCC5)C[C@H]3N4)cc2)c1
- AC50 [1]: 4.39 µM (active)
- AC50 [2]: 10.7 µM (active)

Structure (SMILES): Fc1ccc(-n2nnnc2-c2cnc(-c3cccs3)nc2C(F)(F)F)cc1
- EC50 [3]: 9.77 µM (active)
- AC50 [4]: 9.88 µM (active)
- IC50 [5]: 5.2 µM (active)
- AC50 [6]: 18.8 µM (active)
- AC50 [7]: 24.4 µM (active)
- IC50 [8]: 5.83 µM (active)
- AC50 [9]: 55 µM (active)
- AC50 [10]: 40.4 µM (active)
- AC50 [11]: 4.44 µM (active)
- AC50 [12]: 13.3 µM (active)
- IC50 [13]: 12.8 µM (inactive)
- AC50 [14]: 2.6 µM (active)

Structure (SMILES): C=CCn1c(SCC(=O)c2[nH]c(C)c(C(=O)OCC)c2C)nc2scc(-c3ccccc3)c2c1=O
- EC50 [18]: 3.85 µM (active)
- EC50 [19]: 5.36 µM (active)
- CC50 [20]: > 100 µM (active)

Structure (SMILES): O=C(Nc1nccs1)c1cn(-c2ccccc2)nc1-c1cccnc1
- IC50 [22]: > 74.4 µM (inactive)

Structure (SMILES): CCOc1ccc(-c2nc(CN3CCCCC3CCn3cccn3)c(C)o2)cc1 (stereo unspecified)
- CC50 [23]: > 40 µM (active)
- IC50 [24]: 12.3 µM (inactive)
- IC50 [25]: 9.63 µM (active)
- IC50 [26]: 22.2 µM (inactive)

Results, then the compound that gave them:

- IC50 [15]: > 83.1 µM (inactive)
- IC50 [16]: > 27.7 µM (inactive)
Structure (SMILES): C#CCNc1ccc(C(=O)OCC)cc1

- IC50 [17]: > 49.8 µM (not active)
Structure (SMILES): CCc1nnc(NCC(=O)N2CCc3ccccc32)s1

- AC50 [21]: 1.26 µM (inconclusive)
Structure (SMILES): OCC1OC(c2ccccc2)C=CC1Oc1cc(Cl)cc(Cl)c1 (stereo unspecified)

- IC50 [27]: > 100 µM (not active)
- IC50 [28]: 2.15 µM (active)
- IC50 [29]: 1.17 µM (active)
Structure (SMILES): CN1CCN(C2=C(Cl)C(=O)N(c3cccc(Cl)c3)C2=O)CC1

- IC50 [30]: > 100 µM (not active)
- IC50 [29]: > 100 µM (not active)
Structure (SMILES): O=C(NC12CC3CC(CC(C3)C1)C2)c1ccccc1O
